Laboratory results reported in article PMC10816640, “Discovery of Novel Diphenyl Acrylonitrile Derivatives That Promote Adult Rats’ Hippocampal Neurogenesis” (International Journal of Molecular Sciences, 2024).
Entries after “also recorded” stand apart in the source; their conditions may differ.

Key:
Type in all cases: in vivo, rat
[1] = test system: progenitor cells in the rodents’ hippocampi; assay: Proliferation stage of neurogenesis: BrdU labeling, rats sacrificed 24 h after BrdU; conditions: i.p. 4.0 mg/kg/day for 28 days, BrdU pulse, vs vehicle; for proliferation-promoting activity (number of BrdU+ newborn cells): eleven-week-old rats (n = 2)
Description: (§1) Previous in vitro or in vivo studies mainly focused on stimulating the proliferation effect of the small molecules. In this study, a two-step protocol was employed. First, the stimulating function of the compounds on progenitor cells in the rodents’ hippocampi was examined with using bromodeoxyuridine (BrdU) labeling. Next, the potent compounds were further screened to ascertain their ability to promote the differentiation of neural progenitor cells, as confirmed by dual labeling of BrdU and NeuN (neuronal nuclear antigen).
Adult rats were administered intraperitoneally with the prepared compounds at a dose of 4.0 mg/kg/day for a period of 28 days, followed by a BrdU pulse. After 24 h, the rats were sacrificed, and their brain tissues were isolated and cryosectioned. Immunohistochemical staining was performed and eight brain tissue slices were randomly selected for statistical analyzing.
Eight-week-old (or 10-week-old) SD male rats purchased from Peking University Health Science Center were acclimatized for one week at the Beijing Institute of Technology. All experimental protocols strictly adhered to the regulations governing the management of experimental animals and the animal ethics policy of the Beijing Institute of Technology.
(§2) The compounds were dissolved in reagent-grade soybean oil containing 10% ethanol to reach a drug concentration of 2.8 mg/mL. The rats in the experimental group received intraperitoneal injections of the compounds at a dose of 4.0 mg/kg/d for 28 consecutive days. As a control, the vehicle group was administered injections of reagent-grade soybean oil containing 10% ethanol. BrdU (Sigma-Aldrich, St. louis, MA, USA) solution, prepared in physiological saline at a concentration of 10 mg/mL, was administered to all rats on day 29. Each rat received two injections of BrdU at a dosage of 50 mg/kg, with a 2 h interval between injections. The rats were euthanized 24 h (or 28 days) after the final BrdU injection.
(§3) Two or four rats per group were anesthetized using pentobarbital sodium (70 mg/kg) and subsequently perfused with physiological saline. The brain tissue was carefully dissected and fixed in 4% paraformaldehyde at 4 °C for one week. Next, the brain tissue underwent dehydration using a phosphate-buffered saline (PBS) solution containing 20% to 30% sucrose. Finally, the brain tissue was cryosectioned into slices with a thickness of 30 μm, and eight slices were randomly selected for further analysis.
The assessment of new cell proliferation was conducted using BrdU staining. To eliminate endogenous peroxides, sections were exposed to 1% H2O2 for 30 min at RT. Cellular denaturation was achieved by treating the sections with 2 M HCl at 37 °C for 1 h, followed by rinsing in 0.1 M borate buffer (pH 8.5). Tissue sections were subjected to blocking in a solution consisting of 5% goat serum and 0.5% Triton X-100 in PBS at RT for 1–2 h. The specimens were then incubated overnight at 4 °C with a mouse primary antibody specific to BrdU (diluted at 1:500; Millipore, Billerica, MA, USA). Subsequently, the DAB kit was employed for 2 h of incubation at RT.
(§4) The data were presented as mean ± SEM (standard error of the mean) and visualized using GRAPHPAD PRISM 6 (Graphpad Software, La Jolla, CA, USA). Statistical analysis was conducted utilizing one-way analysis of variance (ANOVA) followed by a post hoc test. Subsequent to the statistical treatment, the observed discrepancies were determined to be statistically significant (p < 0.05).

[2] = test system: newborn cells in the subgranular zone; assay: BrdU+ newborn cells, rats sacrificed 28 days after BrdU; conditions: nine-week-old rats (n = 2), i.p. 4.0 mg/kg/day for 28 days, BrdU pulse, Figure 7A
Description: The study employed a rat model, wherein nine-week-old rats were administered intraperitoneally with the compound at a dose of 4.0 mg/kg/day for 28 days and then treated with a pulse of BrdU. Instead of sacrificing the rats 24 h after the BrdU injections, the rats were sacrificed after another 28 days. The brains were then isolated and cryosectioned. Eight randomly selected slices were subjected to immunohistochemical staining. This staining enabled the co-localization of the BrdU-incorporated cells with the NeuN marker, enabling the definition of the compounds that could promote the differentiation of newborn neural progenitor cells into mature functional neurons. The compounds were dissolved in reagent-grade soybean oil containing 10% ethanol to reach a drug concentration of 2.8 mg/mL. The rats in the experimental group received intraperitoneal injections of the compounds at a dose of 4.0 mg/kg/d for 28 consecutive days. As a control, the vehicle group was administered injections of reagent-grade soybean oil containing 10% ethanol. BrdU (Sigma-Aldrich, St. louis, MA, USA) solution, prepared in physiological saline at a concentration of 10 mg/mL, was administered to all rats on day 29. Each rat received two injections of BrdU at a dosage of 50 mg/kg, with a 2 h interval between injections. The rats were euthanized 24 h (or 28 days) after the final BrdU injection. Two or four rats per group were anesthetized using pentobarbital sodium (70 mg/kg) and subsequently perfused with physiological saline. The brain tissue was carefully dissected and fixed in 4% paraformaldehyde at 4 °C for one week. Next, the brain tissue underwent dehydration using a phosphate-buffered saline (PBS) solution containing 20% to 30% sucrose. Finally, the brain tissue was cryosectioned into slices with a thickness of 30 μm, and eight slices were randomly selected for further analysis. The assessment of new cell proliferation was conducted using BrdU staining. To eliminate endogenous peroxides, sections were exposed to 1% H2O2 for 30 min at RT. Cellular denaturation was achieved by treating the sections with 2 M HCl at 37 °C for 1 h, followed by rinsing in 0.1 M borate buffer (pH 8.5). Tissue sections were subjected to blocking in a solution consisting of 5% goat serum and 0.5% Triton X-100 in PBS at RT for 1–2 h. The specimens were then incubated overnight at 4 °C with a mouse primary antibody specific to BrdU (diluted at 1:500; Millipore, Billerica, MA, USA). Subsequently, the DAB kit was employed for 2 h of incubation at RT. The differentiation process of NPCs was visualized through the utilization of the NeuN/BrdU double staining technique. Tissue sections were subjected to an incubation period in a blocking buffer at RT for 1 to 2 h. The specimens were exposed to a rabbit anti-NeuN antibody (diluted at 1:500, Abcam, Cambridge, MA, UK) and a primary antibody, BrdU (diluted at 1:500), overnight at 4 °C. Afterwards, the sections were treated with anti-mouse 488 and anti-rabbit TRITC secondary antibodies for 2 h at RT. The data were presented as mean ± SEM (standard error of the mean) and visualized using GRAPHPAD PRISM 6 (Graphpad Software, La Jolla, CA, USA). Statistical analysis was conducted utilizing one-way analysis of variance (ANOVA) followed by a post hoc test. Subsequent to the statistical treatment, the observed discrepancies were determined to be statistically significant (p < 0.05).

[3] = test system: newborn neural progenitor cells (differentiation into mature neurons); assay: Differentiation stage of neurogenesis: NeuN/BrdU double staining, rats sacrificed 28 days after BrdU; conditions: nine-week-old rats (n = 4), i.p. 4.0 mg/kg, Figure 9, 4 mg/kg
Description: as §1
The study employed a rat model, wherein nine-week-old rats were administered intraperitoneally with the compound at a dose of 4.0 mg/kg/day for 28 days and then treated with a pulse of BrdU. Instead of sacrificing the rats 24 h after the BrdU injections, the rats were sacrificed after another 28 days. The brains were then isolated and cryosectioned. Eight randomly selected slices were subjected to immunohistochemical staining. This staining enabled the co-localization of the BrdU-incorporated cells with the NeuN marker, enabling the definition of the compounds that could promote the differentiation of newborn neural progenitor cells into mature functional neurons.
as §2, §3
The differentiation process of NPCs was visualized through the utilization of the NeuN/BrdU double staining technique. Tissue sections were subjected to an incubation period in a blocking buffer at RT for 1 to 2 h. The specimens were exposed to a rabbit anti-NeuN antibody (diluted at 1:500, Abcam, Cambridge, MA, UK) and a primary antibody, BrdU (diluted at 1:500), overnight at 4 °C. Afterwards, the sections were treated with anti-mouse 488 and anti-rabbit TRITC secondary antibodies for 2 h at RT.
as §4

Structure (SMILES)	proliferation-promoting activity (number of BrdU+ newborn cells) ([1]; Figures 3-6, 4 mg/kg/day)	proliferative activity over the longer 28 day period (number of BrdU+ cells) [2]	proliferation-promoting activity (number of BrdU+ newborn cells) ([1]; Figures 3-6)	further results
CC(C)C(=O)Nc1ccc(/C=C/Cc2ccc3c(c2)OCO3)cc1 [23b, (E)-N-(4-(3-(benzo[d][1, 3]dioxol-5-yl)prop-1-en-1-yl)phenyl)isobutyramide]	significant proliferation-promoting activity; also recorded: maintained the same proliferative activity as 9b	did not exhibit significant proliferative activity	–	–
CC(=O)Nc1ccc(/C(C#N)=C/c2ccc3c(c2)OCO3)cc1 [29a, (Z)-N-(4-(2-(benzo[d][1, 3]dioxol-5-yl)-1-cyanovinyl)phenyl)acetamide]	–	–	–	proliferation-promoting activity (number of BrdU+ positive cells) ([1]; nine-week-old rats (n = 4), Figure 8): inactive; neurogenesis-promoting activity (number of NeuN+ and BrdU+ cells), differentiation stage [3]: did not show activity; also recorded: no significant neurogenesis-promoting activity
O=C(Nc1ccc(/C=C/c2ccc3c(c2)OCO3)cc1)C1CCC1 [8d, (E)-N-(4-(2-(benzo[d][1, 3]dioxol-5-yl)vinyl)phenyl)cyclobutanecarboxamide]	significant proliferation-promoting activity; also recorded: greater propensity for enhancing activity	could promote the proliferation of progenitors	–	–
N#CC1(C(=O)Nc2ccc(/C=C/c3ccc4c(c3)OCO4)cc2)CC1 [8e, (E)-N-(4-(2-(benzo[d][1, 3]dioxol-5-yl)vinyl)phenyl)-1-cyanocyclopropane-1-carboxamide]	–	–	did not display significant activity	–
O=S(=O)(Nc1ccc(/C=C/c2ccc3c(c2)OCO3)cc1)C1CC1 [8k, (E)-N-(4-(2-(benzo[d][1, 3]dioxol-5-yl)vinyl)phenyl)cyclopropanesulfonamide]	significant proliferation-promoting activity; also recorded: greater propensity for enhancing activity	could promote the proliferation of progenitors	–	–
CC(=O)Nc1ccc(CN(C)Cc2ccc3c(c2)OCO3)cc1 [36a, N-(4-(((benzo[d][1, 3]dioxol-5-ylmethyl)(methyl)amino)methyl)phenyl)acetamide]	–	–	abolished the activity	–
CN(C)C(=O)Nc1ccc(/C=C/c2ccc3c(c2)OCO3)cc1 [8c, (E)-3-(4-(2-(benzo[d][1, 3]dioxol-5-yl)vinyl)phenyl)-1,1-dimethylurea]	–	could promote the proliferation of progenitors	significant proliferation-promoting activity	–
COc1cc(/C=C/c2ccc(NC(=O)C(C)C)cc2)cc(OC)c1 [9b, (E)-N-(4-(3,5-dimethoxystyryl)phenyl)isobutyramide]	–	–	significant proliferation-promoting activity	–
CN(C)S(=O)(=O)Cc1ccc(/C=C/c2ccc3c(c2)OCO3)cc1 [8j, (E)-1-(4-(2-(benzo[d][1, 3]dioxol-5-yl)vinyl)phenyl)-N,N-dimethylmethanesulfonamide]	significant proliferation-promoting activity; also recorded: greater propensity for enhancing activity	–	–	–
CS(=O)(=O)Nc1ccc(/C=C/Cc2ccc3c(c2)OCO3)cc1 [23i, (E)-N-(4-(3-(benzo[d][1, 3]dioxol-5-yl)prop-1-en-1-yl)phenyl)methanesulfonamide]	–	–	decreased	–
CC(C)C(=O)NCc1ccc(/C=C/c2ccc3c(c2)OCO3)cc1 [42b, (E)-N-(4-(2-(benzo[d][1, 3]dioxol-5-yl)vinyl)benzyl)isobutyramide]	not and loss of activity	remained devoid of proliferative activity	–	–
CC(C)C(=O)Nc1ccc(C/C=C/c2ccc3c(c2)OCO3)cc1 [18b, (E)-N-(4-(3-(benzo[d][1, 3]dioxol-5-yl)allyl)phenyl)isobutyramide]	significant proliferation-promoting activity; also recorded: maintained the same proliferative activity as 9b	did not exhibit significant proliferative activity	–	–
COc1cc(C/C=C/c2ccc(NC(=O)C(C)C)cc2)cc(OC)c1 [24b, (E)-N-(4-(3-(3,5-dimethoxyphenyl)prop-1-en-1-yl)phenyl)isobutyramide]	–	did not exhibit significant proliferative activity	–	–
COc1cc(/C=C/c2ccc(NC(=O)c3ccccc3)c(F)c2)cc(OC)c1 [12f, (E)-N-(4-(3,5-dimethoxystyryl)-2-fluorophenyl)benzamide]	not and adversely affected the proliferative activity	–	–	–
